Like-named read-outs stand apart in the source and are kept apart here.
Key:
[1] = tested on: wild-type ZIKV (Ugandan MR766 strain) in Vero cells; test: ZIKV cytopathic effect (CPE) inhibition qHTS assay, CellTiter-Glo readout; assay type: cell-based, Zika virus; details: for IC50: read-out: ZIKV-infection (CPE, ZIKV Antiviral Assays), IC50
[2] = tested on: caspase-3 activity induced by ZIKV in Vero cells; test: cells; assay type: cell-based; details: read-out: Caspase 3 (ZIKV Antiviral Assays), IC50
[3] = tested on: ZIKV-RLuc (Cambodian strain FSS13025); test: microbe, parasite or virus in culture; assay type: cell-based, Zika virus; details: read-out: Rluc-ZIKV (ZIKV Antiviral Assays), IC50
[4] = tested on: ZIKV-mCherry (Cambodian strain FSS13025); test: microbe, parasite or virus in culture; assay type: cell-based, Zika virus
in vitro [5] = details: human
in vitro [6] = details: African green monkey
[7] = tested on: DENV (Dengue virus type 2, strain New Guinea C)
[8] = tested on: mCherry-ZIKV in human neuronal progenitor cells; test: microbe, parasite or virus in culture; assay type: cell-based, Zika virus
[9] = Zika virus, Vero, read-out: Log AC50 (M) (converted)
[10] = Zika virus, Vero, from Hill fit of the response curve, 50% of maximum activity response, 194 cherry-picked compounds, protocol name not given, read-out: AC50
[11] = Zika virus, Vero, potency in log units (Molar) from Hill fit of the response curve, 194 cherry-picked compounds, protocol name not given, read-out: Log AC50 (converted)
[12] = Zika virus, Vero cells, wild-type ZIKV MOI 1, 48 hr, unit inferred
[13] = difference between neutral response and maximum compound response
[14] = Zika virus, ZIKV-infected Vero cells, 48 hr, unit inferred

| Structure (SMILES) | Efficacy [1] | AC50 ([1]; Zika virus, Vero) | IC50 ([1]; Zika virus, Vero, 48 h) | AC50 [1, 9] | IC50 ([2]; Zika virus, Vero, 48 h) | IC50 ([3]; Zika virus, Vero, 48 h) | CC-v2 (curve class of the dose response curve) [4] | Efficacy (difference between neutral response and maximum compound response) [4] | Max Resp (difference between neutral response and response at highest compound concentration) [4] | AC50 ([4]; Zika virus, Vero) | AC50 [4, 9] | CC50 (in vitro [5]) | CC-v2 (curve class classification of the dose response curve) [1] | CC50 (in vitro [6]) | CC50 at 48 h (in vitro [6]; Vero cells) | further results |
| --- | --- | --- | --- | --- | --- | --- | --- | --- | --- | --- | --- | --- | --- | --- | --- | --- |
| O=C(O)Cc1cc(I)c(Oc2ccc(O)c(I)c2)c(I)c1 [NCGC00016227-08] | -29.653 | 2.91e-05 M | 29.1 µM | 2.91e-05 M | > 48 µM | 23.3 µM | -1.3 | -57.778 | -100.305 | 1.5e-05 M | 1.5e-05 M | > 30 µM |  |  |  | CC50 at 48 h (in vitro [6]): > 50 µM |
| CCC(C)C1NC(=O)C(C(C)=O)=C1O (centres unmarked) [NCGC00168879-02] | -73.15 | 2.11e-05 M | 21.1 µM | 2.11e-05 M | 3.82 µM | 12 µM | -1.2 | -63.104 | -99.611 | 2.17e-05 M | 2.17e-05 M | > 30 µM | -1.2 | > 50 µM |  |  |
| COc1c(C(C)C)cc2c(c1O)[C@@]1(C(=O)O)CCCC(C)(C)C1CC2 (some centres unmarked) [NCGC00169945-03] |  |  |  |  |  | 16.1 µM | -2.3 | -78.993 | -100.305 | 1.47e-05 M | 1.47e-05 M | 12.5 µM |  |  |  | AC50 [1, 10]: 1.43e-05 M; AC50 [1, 11]: 1.43e-05 M; IC50 [1, 12]: 14.3 µM; Efficacy [1, 13]: -27.847; IC50 [2, 14]: 20.4 µM; CC50 at 48 h (in vitro [6]): > 50 µM |
| CC1=C[C@H]2O[C@@H]3[C@H](O)C[C@](C)([C@@]2(CO)[C@H](O)C1=O)[C@]31CO1 [NCGC00180572-02, vomitoxin] | -38.561 |  |  |  |  |  | -1.1 | -87.951 | -98.582 |  |  |  |  |  |  | WHV active Yes/No (WNV (Kern515/WN02)): Yes; Log AC50 (M) [1]: -6.2862 M; Max Resp [1]: -28.893; AC50 ([1]; read-out: AC50): 5.17e-07 M; IC50 [1]: 0.52 µM; IC50 [2]: 0.74 µM; ZIKV active Yes/No (ZIKV): Yes; YFV active Yes/No (YFV (YFV 17D)): Yes; IC50 [3]: 0.74 µM; Log AC50 (M) [4]: -7.0741 M; AC50 ([4]; read-out: AC50): 8.43e-08 M; DENV active Yes/No [7]: Yes; CC-v2 (curve class) [8]: -1.1; Efficacy [8]: -97.398; Log AC50 (M) [8]: -5.35 M; Max Resp [8]: -88.056; AC50 ([8]; read-out: AC50): 4.47 µM; IC50 ([8]; read-out: IC50 in NPC): 4.4 µM; IC50 ([8]; read-out: NPC (ZIKV Antiviral Assays), IC50): 4.47 µM |
| C=C(C)C1Cc2c(ccc3c2OCC(c2ccc(O)cc2O)C3)O1 (centres unmarked) [NCGC00347653-02] | -16.545 | 7.18e-08 M | 0.07 µM |  | 16.2 µM | 0.02 µM | 5 | 33.59 | -97.958 |  |  | > 30 µM |  |  | > 50 µM | Curve class [1]: -3; AC50 ([1]; Zika virus, Vero, read-out: Log AC50 (converted)): 7.18e-08 M; Emax ([1]; Zika virus, Vero, read-out: Max response): -30.5% |
| C[C@H]1CC[C@@]2(OC1)O[C@H]1CC3C4CC=C5C[C@H](O)C[C@@H](O[C@@H]6O[C@@H](C)[C@H](O)[C@@H](O)[C@H]6O[C@@H]6O[C@@H](C)[C@H](O)[C@@H](O)[C@H]6O)[C@]5(C)C4CC[C@]3(C)[C@H]1[C@@H]2C (some centres unmarked) [NCGC00380128-01, Ophiopogonin B] |  |  |  |  |  | 8.74 µM | -1.4 | -59.028 | -100.132 |  |  | > 30 µM |  |  |  | AC50 [1, 10]: 1.72e-05 M; AC50 [1, 11]: 1.72e-05 M; IC50 [1, 12]: 17.2 µM; CC-v2 (curve class classification of the dose response curve) ([1]; curve class v2 (Inglese et al. 2006)): -2.2; Efficacy [1, 13]: -28.987; IC50 [2, 14]: > 48 µM; CC50 at 48 h (in vitro [6]): > 50 µM |
| COc1ccc([C@H]2OC[C@H]3O[C@@H](O[C@H]4[C@@H]2NC[C@@H]4O)[C@H](O)[C@H]3O)cc1 [NCGC00380307-01] | -66.527 | 2.27e-05 M | 22.7 µM | 2.27e-05 M | 6.46 µM | 2.28 µM | -1.2 | -48.259 | -100.305 | 1.31e-07 M | 1.31e-07 M | > 30 µM | -1.2 |  | > 50 µM |  |
| C=C(CO)[C@@]12O[C@@H]1[C@@]1(C)C(=CC2=O)CC[C@@H](O)[C@@H]1C [NCGC00380396-01] | -65.778 | 8.2e-06 M | 8.2 µM | 8.2e-06 M | 0.01 µM | 4.14 µM | -1.2 | -43.557 | -98.628 | 1.34e-06 M | 1.34e-06 M | > 30 µM | -1.2 | > 50 µM |  |  |
| COc1cc2c(cc1OC)[C@@H]1[C@H](O)[C@@H](OC)C=C3CCN(C2)[C@H]31 [NCGC00384634-01] | -55.9 | 5.7e-06 M | 5.7 µM | 5.7e-06 M | 1.29 µM | 4.55 µM | -1.2 | -42.96 | -99.819 | 8.26e-07 M | 8.26e-07 M | > 30 µM | -1.2 | > 50 µM |  |  |
| COc1ccc(C(O)C(C)OC2OC(CO)C(O)C(O)C2O)cc1 (centres unmarked) [NCGC00385130-01] | -87.993 | 2.02e-05 M | 20.2 µM | 2.02e-05 M | 0.01 µM | 0.001 µM | 4 | 0 | -28.221 |  |  | > 30 µM | -3 |  | > 50 µM |  |
| COc1cc2c(c(OC)c1CC=C(C)C)C[C@H](c1ccc(O)c(CC=C(C)C)c1O)CO2 [NCGC00385627-01] | -25.574 | 1.78e-05 M | 17.8 µM | 1.78e-05 M | 16.3 µM | 11.5 µM | 4 | -33.338 | -100.29 |  |  | > 30 µM |  |  | > 50 µM |  |
| CN[C@H](CC(C)C)C(=O)N[C@H]1C(=O)N[C@@H](CC(N)=O)C(=O)N[C@H]2C(=O)N[C@H]3C(=O)N[C@H](C(=O)N[C@H](C(=O)O)c4cc(O)cc(O)c4-c4cc3ccc4O)[C@H](O[C@H]3C[C@](C)(N)[C@@H](O)[C@H](C)O3)c3ccc(c(Cl)c3)Oc3cc2cc(c3O[C@@H]2O[C@H](CO)[C@@H](O)[C@H](O)[C@H]2O[C@H]2C[C@](C)(NCc3ccc(-c4ccc(Cl)cc4)cc3)[C@@H](O)[C@H](C)O2)Oc2ccc(cc2Cl)[C@H]1O [NCGC00485478-01] | -25.057 | 1.37e-05 M | 13.7 µM | 1.37e-05 M | > 48 µM | 12.3 µM | 4 | 0 | -93.894 |  |  | > 30 µM |  | > 50 µM |  |  |

— PMC8765781, “A platform of assays for the discovery of anti-Zika small-molecules with activity in a 3D-bioprinted outer-blood-retina model” (PLoS ONE, 2022)
